Data: patent publication US20210323950A1, “HERBICIDALLY ACTIVE BICYCLIC BENZOYLPYRAZOLES” (Bayer Aktiengesellschaft, priority 2018, published 2021)

Tests used:
Format in all cases: in vivo
[1] = test system: Amaranthus retroflexus (AMARE); assay: Pre-emergence herbicidal action against AMARE; conditions: 80 g/ha, scored visually after about 3 weeks vs untreated controls
Description: (§1) AMARE: Amaranthus retroflexus 1. Pre-Emergence Herbicidal Action and Crop Plant Compatibility Seeds of monocotyledonous and dicotyledonous weed plants and crop plants are placed in plastic or organic planting pots and covered with soil. The compounds of the invention, formulated in the form of wettable powders (WP) or as emulsion concentrates (EC), are then applied onto the surface of the covering soil as aqueous suspension or emulsion with addition of 0.5% additive at a water application rate of […] (converted). After the treatment, the pots are placed in a greenhouse and kept under good growth conditions for the trial plants. After about 3 weeks, the effect of the preparations is scored visually in comparison with untreated controls as percentages. The tables below show the herbicidal activity of numerous compounds according to the invention against important harmful plants. For example, 100% activity=the plants have died, 0% activity=like control plants.

[2] = test system: Stellaria media (STEME); assay: Post-emergence herbicidal action against STEME; conditions: 20 g/ha, post-emergence at one-leaf stage, rated visually after about 3 weeks vs untreated controls
Protocol: (§2) STEME: Stellaria media 2. Post-Emergence Herbicidal Action and Crop Plant Compatibility Seeds of monocotyledonous and dicotyledonous weeds and crop plants are placed in sandy loam in plastic or organic planting pots, covered with soil and cultivated in a greenhouse under controlled growth conditions. 2 to 3 weeks after sowing, the test plants are treated at the one-leaf stage. The compounds of the invention, formulated in the form of wettable powders (WP) or as emulsion concentrates (EC), are then sprayed onto the green parts of the plants as aqueous suspension or emulsion with addition of 0.5% additive at a water application rate of […] (converted). After the test plants had been kept in the greenhouse under optimum growth conditions for about 3 weeks, the activity of the preparations is rated visually in comparison to untreated controls. The tables below show the herbicidal activity of numerous compounds according to the invention against important harmful plants. For example, 100% activity=the plants have died, 0% activity=like control plants.

[3] = test system: Amaranthus retroflexus (AMARE); assay: Post-emergence herbicidal action against AMARE; conditions: 20 g/ha, post-emergence at one-leaf stage, rated visually after about 3 weeks vs untreated controls
Protocol: as §2, with “AMARE: Amaranthus retroflexus” for “STEME: Stellaria media”

[4] = test system: Veronica persica (VERPE); assay: Pre-emergence herbicidal action against VERPE; conditions: 80 g/ha, scored visually after about 3 weeks vs untreated controls
Description: as §1, with “VERPE: Veronica persica” for “AMARE: Amaranthus retroflexus”

[5] = test system: Stellaria media (STEME); assay: Pre-emergence herbicidal action against STEME; conditions: 80 g/ha, scored visually after about 3 weeks vs untreated controls
Description: as §1, with “STEME: Stellaria media” for “AMARE: Amaranthus retroflexus”

[6] = test system: Viola tricolor (VIOTR); assay: Pre-emergence herbicidal action against VIOTR; conditions: 80 g/ha, scored visually after about 3 weeks vs untreated controls
Description: as §1, with “VIOTR: Viola tricolor” for “AMARE: Amaranthus retroflexus”

[7] = test system: Echinochloa crus-galli (ECHCG); assay: Pre-emergence herbicidal action against ECHCG; conditions: 80 g/ha, scored visually after about 3 weeks vs untreated controls
Description: as §1, with “ECHCG: Echinochloa crus-galli” for “AMARE: Amaranthus retroflexus”

[8] = test system: Abutilon theophrasti (ABUTH); assay: Post-emergence herbicidal action against ABUTH; conditions: 20 g/ha, post-emergence at one-leaf stage, rated visually after about 3 weeks vs untreated controls
Protocol: as §2, with “ABUTH: Abutilon theophrasti” for “STEME: Stellaria media”

[9] = test system: Abutilon theophrasti (ABUTH); assay: Pre-emergence herbicidal action against ABUTH; conditions: 80 g/ha, scored visually after about 3 weeks vs untreated controls
Description: as §1, with “ABUTH: Abutilon theophrasti” for “AMARE: Amaranthus retroflexus”

[10] = test system: Setaria viridis (SETVI); assay: Pre-emergence herbicidal action against SETVI; conditions: 80 g/ha, scored visually after about 3 weeks vs untreated controls
Description: as §1, with “SETVI: Setaria viridis” for “AMARE: Amaranthus retroflexus”

[11] = test system: Echinochloa crus-galli (ECHCG); assay: Post-emergence herbicidal action against ECHCG; conditions: 20 g/ha, post-emergence at one-leaf stage, rated visually after about 3 weeks vs untreated controls
Protocol: as §2, with “ECHCG: Echinochloa crus-galli” for “STEME: Stellaria media”

[12] = test system: Viola tricolor (VIOTR); assay: Post-emergence herbicidal action against VIOTR; conditions: 20 g/ha, post-emergence at one-leaf stage, rated visually after about 3 weeks vs untreated controls
Protocol: as §2, with “VIOTR: Viola tricolor” for “STEME: Stellaria media”

[13] = test system: Setaria viridis (SETVI); assay: Post-emergence herbicidal action against SETVI; conditions: 20 g/ha, post-emergence at one-leaf stage, rated visually after about 3 weeks vs untreated controls
Protocol: as §2, with “SETVI: Setaria viridis” for “STEME: Stellaria media”

SMILES	Pre-emergence action against AMARE [1]	Post-emergence action against STEME [2]	Post-emergence action against AMARE [3]	Pre-emergence action against VERPE [4]	Pre-emergence action against STEME [5]	Pre-emergence action against VIOTR [6]	Pre-emergence action against ECHCG [7]	Post-emergence action against ABUTH [8]	Pre-emergence action against ABUTH [9]	Pre-emergence action against SETVI [10]	Post-emergence action against ECHCG [11]	Post-emergence action against VIOTR [12]	Post-emergence action against SETVI [13]
Cn1nc(C2CC2)c(C(=O)c2ccc(C(F)(F)F)c3c2OCCS3(=O)=O)c1O [Example 1-119]	100%	100%	100%	90%	100%	100%	80%	90%	100%	–	–	–	–
Cc1nn(C)c(O)c1C(=O)c1ccc(C(F)(F)F)c2c1OCCS2 [Example 1-25]	100%	100%	–	80%	90%	100%	90%	–	100%	100%	90%	–	–
Cn1nc(CCC(F)(F)F)c(C(=O)c2ccc(C(F)(F)F)c3c2OCS3)c1O [Example 1-127]	–	–	–	–	–	–	–	–	–	–	–	80%	–
CCn1ncc(C(=O)c2ccc(C(F)(F)F)c3c2OCCS3)c1O [Example 1-20]	100%	–	–	–	100%	100%	100%	80%	100%	100%	80%	–	80%
CCn1ncc(C(=O)c2ccc(C(F)(F)F)c3c2SCS3)c1O [Example 1-63]	100%	80%	100%	–	90%	100%	–	80%	–	–	80%	–	–
